In PMC10812785, “Structures, Interactions and Activity of the N-Terminal Truncated Variants of Antimicrobial Peptide Thanatin” (Antibiotics, 2024):
Where two headings read alike, the source gives them in different places. Bridge positions count the residues as written; N and C are the ends. Ends that are not written are not given here.

Key:
LptAm protein of E. coli = biological target: T1, LptAm protein of E. coli (Escherichia coli, UniProt P0ADV1); test: ITC of peptide/LptAm binding; conditions: 50 mM sodium phosphate, 150 mM NaCl, pH 7.0, 25 °C
T1 construct: Expression and purification of LptAm protein (residues 28–159), with a six His-tag (SGRVEHHHHHH) at the C-terminus; made in house; host or cells: E. coli BL21
Procedure: (§1) ITC experiments were conducted by using a MicroCal ITC 200 calorimeter. Samples, LPS and peptides, were prepared in 10 mM sodium phosphate buffer, pH 7.0. LPS (50 µM) was placed in the sample cell, while the syringe contained 1 mM of peptide. In an individual experiment, 2.0 μL of peptide was titrated, with a total of 20 titrations, into the sample cell containing LPS at 37 °C with stirring speed adjusted to 750 rpm. For ITCs of peptides/LptAm, samples were prepared in 50 mM sodium phosphate buffer, 150 mM NaCl, pH 7.0. 25 μM of LptAm was loaded into the sample cell, whereas 250 μM of PM15 and PM15Y was placed in the syringe. ITC titrations were performed with 20 injections of 2 µL of peptide into sample cells at 25 °C with a stirring speed of 750 rpm. ITC data were analyzed by using a single site binding model in MicroCal Origin 5.0 software to obtain the association constant (Ka) and enthalpy change (ΔH). Other binding parameters, namely, dissociation constant (Kd), Gibbs free energy (ΔG) and entropy change (TΔS), were determined indirectly from thermodynamics equations.
Expression and purification of LptAm protein (residues 28–159), with a six His-tag (SGRVEHHHHHH) at the C-terminus, was carried out by using a previously established method. Briefly, plasmid DNA coding for LptAm gene was transformed into E. coli BL21 competent cells in LB agar plates containing 100 µg/mL of ampicillin. Protein production from expressing E. coli was induced by 1 mM isopropyl β-d-1-thiogalactopyranoside (IPTG) at an OD600 value of 0.6–0.8 at 18 °C for 18 h. The bacteria cells were centrifuged at 6000 rpm, 4 °C for 15 min and resuspended in a lysis buffer (100 mM HEPES, 500 mM NaCl, 10 mM imidazole, pH 8). Bacterial cells were lysed by sonication on ice at 25 Amp for 1 h, the lysate was centrifuged at 18,000 rpm, 4 °C for 30 min to remove cellular debris. The cell supernatant was applied through Ni-NTA (Qiagen, Germantown, TN, USA) beads thrice before washing it with increasing concentrations of imidazole. […]

E. coli cells = test: Zeta potential of E. coli cells (surface charge neutralization); format: cell-based; conditions: 10 mM sodium phosphate buffer, pH 7; peptide 2-32 μM; three replicates of 100 runs; Figure 1A
Procedure: All zeta potential measurements were performed on a Zeta Sizer Nano ZS (Malvern Instruments, Worcestershire, UK) equipped with a 633 nm He laser using zeta cells with gold electrodes. Typically, E. coli cells at a mid-log culture in LB media were harvested by centrifugation at 5000 rpm for 10 min and resuspended in 10 mM sodium phosphate buffer, pH 7. Zeta potential value of the bacterial cell suspension was determined for the free cells and with subsequent additions of peptide (2 μM to 32 μM). For each concentration, 100 runs were carried out and three replicates were executed.

[1] = system: Acenobacter baumannii ATCC BAA-1798; format: cell-based, A. baumannii
Excerpt: (§2) Chemically synthesized PM15, PM15Y and PM15A peptides were obtained from GLBiochem^TM (Shanghai, China). Molecular weight of the peptides was confirmed by mass spectrometry. Bacterial strains were obtained from the American Type Culture Collection (ATCC, Manassas, VA, USA). Mueller–Hinton (MH) broth was purchased from Sigma-Aldrich^TM (Saint Louis, MO, USA) and Millipore-Sigma^TM (Saint Louis, MO, USA). 1-N-phenylnaphthylamine (NPN) and LPS (E. coli O111:B4) were purchased from Sigma Aldrich^TM.
Bacterial growth inhibition of PM15, PM15A and PM15Y peptides was estimated against a panel of bacterial strains, namely, E. coli ATCC25922, S. enterica ATCC 14028, K. pneumoniae ATCC 13883, A. baumannii ATCC BAA-1798, S. pyogenes ATCC 19615 and E. faecalis ATCC 29212, by using the broth dilution assay determining minimum inhibitory concentration (MIC). Typically, overnight bacterial cultures were grown to mid-log phase at 37 °C and then diluted in Mueller–Hinton (MH) broth to OD600 ~ 0.002. […] Bacterial inhibition was determined by absorbance of 96-well plates at OD600 nm by using a Cytation spectrophotometer (Agilent, Santa Clara, CA, USA). The minimum peptide concentration showing complete inhibition of bacterial growth was determined as the MIC value.

[2] = ITC of peptide/LPS binding; design: species or system E. coli; conditions: 10 mM sodium phosphate, pH 7.0, 37 °C
Excerpt: as §2, §1

bacteria = conditions: cited from earlier work; for antibacterial activity, in words: N-terminal deletion fragment of thanatin
Excerpt: Antimicrobial peptides (AMPs) are found in all life forms and constitute the first line of defense as a part of innate immunity in higher organisms, including humans. As a mode of action, a significant number of cationic AMPs disrupt membrane structures including the LPS–outer membrane of Gram-negative bacteria. Thanatin, a 21-residue antimicrobial peptide, was originally identified from the hemolymph of the spined soldier bug, or Podisus maculiventris. […] Further, to understand residue length-dependent antibacterial activity, here, we investigated a 15-residue N-terminal peptide fragment, or PM15 (PIIYCNRRTGKCQRM), of thanatin. We also examined two analog peptides, PM15Y and PM15A, to replace residue Pro. […] In this study, we have examined 15-residue thanatin-derived peptide, or PM15, and two analogs, PM15Y and PM15A. PM15 and analog peptides are able to exert antibacterial activity against Gram-negative and Gram ...

[3] = system: LPS-outer membrane; LptA and LptD; conditions: cited from earlier work
Excerpt: (§3) Antimicrobial peptides (AMPs) are found in all life forms and constitute the first line of defense as a part of innate immunity in higher organisms, including humans. As a mode of action, a significant number of cationic AMPs disrupt membrane structures including the LPS–outer membrane of Gram-negative bacteria. Thanatin, a 21-residue antimicrobial peptide, was originally identified from the hemolymph of the spined soldier bug, or Podisus maculiventris. Recent studies have discovered and characterized thanatin orthologous AMPs from other speci ...

[4] = system: bacterial load from model animals; conditions: ref [29],[30],[31]; cited from earlier work
Excerpt: as §3

[5] = biological target: T2, LptAm, a monomeric functional (truncated) variant of LptA (E. coli, UniProt P0ADV1 28-159); test: ITC; 250 uM peptide in the syringe titrated into 25 uM LptAm in the cell; 50 mM sodium phosphate, 150 mM NaCl, pH 7.0, 25 °C; single site binding model; apparent Kd; conditions: both partners purified
T2 construct: LptA, periplasmic component of the LPS transport (Lpt) complex, E. coli, residues 28-159; no removal of the His tag is described; source: E. coli BL21, purified (Ni-NTA, size-exclusion chromatography)
T2 sequence (looked up): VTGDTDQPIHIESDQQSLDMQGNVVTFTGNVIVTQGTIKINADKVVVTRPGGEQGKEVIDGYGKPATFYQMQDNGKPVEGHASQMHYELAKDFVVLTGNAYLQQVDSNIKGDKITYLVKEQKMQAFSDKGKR

[6] = 1 mM peptide into 50 μM E. coli LPS (O111:B4), single site binding model
[7] = LPS, determined indirectly from thermodynamics equations

Molecule: CC[C@H](C)[C@H](NC(=O)[C@@H]1CCCN1)C(=O)N[C@H](C(=O)N[C@@H](Cc1ccc(O)cc1)C(=O)N[C@H]1CSSC[C@@H](C(=O)N[C@@H](CCC(N)=O)C(=O)N[C@@H](CCCNC(=N)N)C(=O)N[C@@H](CCSC)C(=O)O)NC(=O)[C@H](CCCCN)NC(=O)CNC(=O)[C@H]([C@@H](C)O)NC(=O)[C@H](CCCNC(=N)N)NC(=O)[C@H](CCCNC(=N)N)NC(=O)[C@H](CC(N)=O)NC1=O)[C@@H](C)CC [PM15]
- ΔH (LptAm protein of E. coli; 250 μM peptide into 25 μM LptAm, single site binding model): -2.93 kcal/mol
- LptAm binding, in words (LptAm protein of E. coli): bind to LptAm with high affinity
- TΔS (LptAm protein of E. coli; LptAm, determined indirectly from thermodynamics equations): 6.23 kcal/mol
- change in zeta potential of E. coli cells, in words (E. coli cells): increase in zeta potential in a dose-dependent manner
- MIC [1]: >16 (>16) µM
- Kd [2, 6]: 570 nM
- ΔH [2, 6]: -7.33 kcal/mol
- TΔS [2, 7]: 1.54 kcal/mol
- ΔG [2, 7]: -8.87 kcal/mol

Molecule: IIYCNRRTGKCQRM [14-residue (IIYCNRRTGKCQRM) fragment, 14-residue (…) fragment of thanatin]
- antibacterial activity, in words (bacteria; ref [23],[36]): largely inactive
- antibacterial activity, in words (bacteria; ref [23],[36], listed as 14-residue thanatin): inactive peptide

Molecule: VPIIYCNRRTGKCQRM [16-residue fragment, 16-residue fragment (…) of thanatin]
- antibacterial activity, in words (bacteria; ref [23],[26],[31],[36]): potent antibacterial activity
- antibacterial activity, in words (bacteria; ref [23],[31],[36]): demonstrated antibacterial activity

Molecule: thanatin: 21-residue antimicrobial peptide from the hemolymph of the spined soldier bug, Podisus maculiventris
- inhibition of outer-membrane biogenesis, in words ([3]; LptA and LptD, LPS transport, ref [33],[34],[35]): inhibits outer-membrane biogenesis by disrupting protein complexes (LptA and LptD)
- interaction with LPS-outer membrane, in words ([3]; ref [27],[28],[32]): interacted with the LPS–outer membrane, facilitating the permeabilizing of the OM barrier
- clearing bacterial load, in words [4]: promising activity profile
- killing of Gram-negative bacteria, in words (bacteria; Enterobacteriaceae, including drug-resistant strains, ref [26],[28],[30],[31]): extremely potent in selectively killing Gram-negative bacteria
- antimicrobial activity, in words (bacteria; Gram-negative and Gram-positive bacteria and several strains of fungi, ref [23],[26],[27],[28],[29],[30]): broad spectrum of antimicrobial activity

B1: PM15Y, P1 to Y substituted variant of PM15 (peptide)
chain: YIIYCNRRTGKCQRM
modifications: disulfide 5-12
- dH [5]: -11.8 kcal/mol

B2: PM15, 15-residue N-terminal truncated analog of thanatin (peptide)
peptide: PIIYCNRRTGKCQRM
notes: thanatin, Podisus maculiventris (spined soldier bug), the C-terminal 15 residues of the 21-residue peptide (P7-M21 of thanatin); also called 15-residue thanatin peptide; source: synthetic peptide, bought: GLBiochem (Shanghai, China)
- Kd [5]: 600 nM
- dH [5]: -2.93 kcal/mol
